The test system of one assay is maltase. The note with it: maltose as substrate; Non-Patent Publication 4; cited from earlier work.
Assay [1] concerns the target (Homo sapiens, UniProt P14410). To be noted: 4.3-56 mM sucrose as substrate, 14 mM palatinose as inhibitor; cited from earlier work.
For assay [2], the target named is T1, sucrase (Rattus norvegicus, UniProt P23739).
T1 construct: This liquid contained a mixture of enzymes present in small intestine, such as sucrose, glucoamylase, maltase, and isomaltase; tissue Sigma Corporation; host or cells: rat small intestine (acetone powder), buffer extract, unpurified
T1 sequence (P23739 whole entry): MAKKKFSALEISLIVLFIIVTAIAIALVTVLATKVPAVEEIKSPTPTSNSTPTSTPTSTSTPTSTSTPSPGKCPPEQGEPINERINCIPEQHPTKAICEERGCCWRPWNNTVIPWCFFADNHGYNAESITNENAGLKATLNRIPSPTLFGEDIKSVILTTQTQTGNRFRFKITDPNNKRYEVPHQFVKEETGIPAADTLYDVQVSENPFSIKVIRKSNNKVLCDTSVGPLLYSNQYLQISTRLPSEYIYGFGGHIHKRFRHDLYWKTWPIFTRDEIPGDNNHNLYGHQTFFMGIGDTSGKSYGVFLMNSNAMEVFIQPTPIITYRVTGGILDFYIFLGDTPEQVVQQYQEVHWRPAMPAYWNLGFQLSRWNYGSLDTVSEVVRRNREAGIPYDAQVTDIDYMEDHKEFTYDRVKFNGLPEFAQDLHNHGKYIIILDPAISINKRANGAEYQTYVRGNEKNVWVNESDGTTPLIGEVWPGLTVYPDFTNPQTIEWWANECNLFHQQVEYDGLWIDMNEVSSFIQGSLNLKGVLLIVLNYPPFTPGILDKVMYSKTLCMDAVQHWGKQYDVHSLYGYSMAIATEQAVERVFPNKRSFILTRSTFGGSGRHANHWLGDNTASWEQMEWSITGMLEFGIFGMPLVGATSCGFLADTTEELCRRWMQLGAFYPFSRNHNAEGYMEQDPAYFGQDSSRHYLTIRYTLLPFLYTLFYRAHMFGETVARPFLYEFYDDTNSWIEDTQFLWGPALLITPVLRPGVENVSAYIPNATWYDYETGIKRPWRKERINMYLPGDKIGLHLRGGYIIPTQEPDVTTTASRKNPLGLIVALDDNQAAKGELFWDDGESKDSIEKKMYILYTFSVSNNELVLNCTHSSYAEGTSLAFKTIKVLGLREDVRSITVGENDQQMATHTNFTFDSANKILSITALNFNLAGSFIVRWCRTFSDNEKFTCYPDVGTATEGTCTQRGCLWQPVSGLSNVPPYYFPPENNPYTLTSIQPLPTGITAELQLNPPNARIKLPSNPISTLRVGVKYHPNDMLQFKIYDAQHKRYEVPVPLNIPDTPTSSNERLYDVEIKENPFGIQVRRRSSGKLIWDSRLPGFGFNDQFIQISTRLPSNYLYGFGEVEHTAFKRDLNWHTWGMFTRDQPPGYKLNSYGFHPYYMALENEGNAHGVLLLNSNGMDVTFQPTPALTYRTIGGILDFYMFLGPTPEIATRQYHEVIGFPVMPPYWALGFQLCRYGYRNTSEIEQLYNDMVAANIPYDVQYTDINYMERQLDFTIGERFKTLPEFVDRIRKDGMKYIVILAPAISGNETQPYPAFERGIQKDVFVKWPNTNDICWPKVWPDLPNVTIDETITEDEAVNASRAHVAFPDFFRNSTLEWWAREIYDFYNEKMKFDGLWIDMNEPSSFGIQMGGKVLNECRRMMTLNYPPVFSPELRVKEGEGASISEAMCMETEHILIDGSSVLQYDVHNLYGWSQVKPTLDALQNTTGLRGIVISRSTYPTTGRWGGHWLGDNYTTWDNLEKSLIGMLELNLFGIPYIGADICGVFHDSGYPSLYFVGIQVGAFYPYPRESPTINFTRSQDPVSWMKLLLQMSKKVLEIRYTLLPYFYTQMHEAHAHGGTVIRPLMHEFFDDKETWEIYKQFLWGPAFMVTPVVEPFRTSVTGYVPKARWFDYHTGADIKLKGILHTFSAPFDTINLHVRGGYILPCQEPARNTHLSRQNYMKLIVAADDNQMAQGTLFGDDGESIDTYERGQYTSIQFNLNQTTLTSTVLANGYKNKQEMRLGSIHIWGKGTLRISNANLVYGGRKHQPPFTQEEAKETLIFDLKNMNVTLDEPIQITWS
Briefly: Sucrase activity inhibition with rat small-intestinal enzyme liquid, substrate sucrose. Type of assay: biochemical. How it is done: Palatinose (trade name: Palatinose IC, ex Shin Mitsui Sugar Co., Ltd.) (test sample) was used as a sample for investigating each enzyme activity inhibitory effect. Maltose and sucrose were used as substrates for maltase and sucrose, respectively. The test sample and the substrates were dissolved in 0.1 M phosphate buffer (pH 6.8) at the concentration shown in Table 1 below to prepare test solutions (Solutions 4 and 5). Also, the test sample or the substrates were dissolved in 0.1 M phosphate buffer (pH 6.8), respectively to at the concentration shown in Table 1 below to prepare control solutions (Solution 1 for the test sample and Solutions 2 and 3 for the substrates).
Two grams of rat small-intestinal acetone powder (ex Sigma Corporation) were dissolved in 20 ml of 0.1 M phosphate buffer (pH 6.8), left standing one day at 5° C., and subsequently subjected to centrifugal separation (8000 rpm×15 min.). The supernatant was filtered through a 0.8 μm membrane filter to obtain a small-intestinal enzyme liquid. This liquid contained a mixture of enzymes present in small intestine, such as sucrose, glucoamylase, maltase, and isomaltase.
Each 0.25 ml of the small-intestinal enzyme liquid was added to each 5 ml of Solutions 1 through 5 and placed in a water bath at 37° C. to allow them to react for 60 min. while shaken at 60 strokes/min. After the reaction, they were heated in a boiling water bath for 3 min. for inactivation of the enzymes.
The glucose concentration in each solution after the reaction was measured using the F-kit Glucose (ex Roche). A liberated glucose concentration (g/l) was calculated by subtracting the blank value (0.1 M phosphate buffer alone) and the concentration of glucose originally contained in the test sample from each glucose concentration measured.
Next, each of the liberated glucose concentration was input in the following equation to obtain decomposition inhibition ratio for maltase and sucrose. In the present tests, the substrates and the inhibitors were decomposed by enzymes present in the small-intestinal enzyme liquid. However, the enzymes decomposing the substrates are different from the enzymes decomposing the inhibitors. The decomposition inhibition ratio was determined as a measure for the inhibitory effect. When the inhibitor was added, the glucose concentration was lower than that seen when the substrate alone was reacted. A higher decomposition inhibition ratio means a stronger inhibitory effect.
Decomposition inhibition ratio,%={(A+B)−(AB)}+(A+B)×100 [Equation 1]
wherein (A+B) indicates a sum of a liberated glucose concentration in the control solution containing the test sample alone after the reaction (A) and a liberated glucose concentration in the control solution containing the substrate alone after the reaction (B); and (AB) indicates a liberated glucose concentration in the test solution containing the test sample (A) and the substrate (B), after the reaction.
The procedures in Example 1 were repeated with the exception that the test solutions contained 5% of sucrose and 0.5%, 1.0%, 3.0% or 5.0% of palatinose to examine intensity of the sucrose activity inhibition. A control solution contained 5% of sucrose in 0.1 M phosphate buffer (pH 6.8).
The procedures in Example 1 were repeated with the exception that palatinit and palatinose were used as test samples and sucrose was used as a substrate. The test samples and the substrate were dissolved in 0.1 M phosphate buffer (pH 6.8) to attain the concentration shown in Table 3 to thereby prepare two test solutions. Besides, each one of the test samples or the substrate was dissolved in 0.1 M phosphate buffer (pH 6.8) to attain the concentration shown in Table 3 to thereby prepare control solutions. Each 5 ml of the aforementioned test solutions or the control solutions was subjected to the enzymatic reaction according to the same procedures as in Example 1. The glucose concentration and the fructose concentration were measured. […]

Assay [3] has as its target T1, sucrase. As to the kind of experiment: Ratio of inhibitor to the substrate sucrose (Examples 8, 9). Type of assay: biochemical. The note with it: 10 min. How it is done:
Twenty samples with the concentrations shown in Table 11, Samples A-1 through A-20, were dissolved in 0.1 M phosphate buffer (pH 6.8) to a final volume of 2.5 ml.
This was made in the same way as in the preparation of a small intestinal enzyme solution in Example 1.
(§1) Each 0.15 ml of a small intestinal enzyme solution was added to each 2.5 ml of the aforementioned 20 samples, each mixture, and placed in a water bath at 37° C. to allow reaction for 10 minutes while shaken at 60 strokes/min. At the end of the reaction, the mixture was heated in a boiling water bath for 3 min. for inactivation of the enzyme. As a blank, 0.15 ml of the intestinal enzyme solution was added to 0.1 M phosphate buffer (pH 6.8) and the enzyme was inactivated immediately.
(§2) After the reaction, the glucose concentration in each solution was measured using the F-kit Glucose (ex Roche) as in Example 1.
The procedures in Example 8 were repeated with the exception that twenty samples with the concentrations shown in Table 12, Samples B-1 through B-20, were dissolved in 0.1 M phosphate buffer (pH 6.8) to a final volume of 2.5 ml.

In a further assay the test system is glucoamylase. As to the kind of experiment: Ratio of inhibitor to the substrate dextrin (Examples 10, 11). Type of assay: biochemical, rat. How it is done:
as §1, §2
The procedures in Example 8 were repeated with the exception that sixteen samples with the concentrations shown in Table 13, Samples C-1 through C-16, were dissolved in 0.1 M phosphate buffer (pH 6.8) to a final volume of 2.5 ml.
The procedures in Example 8 were repeated with the exception that sixteen samples with the concentrations shown in Table 14, Samples D-1 through D-16, were dissolved in 0.1 M phosphate buffer (pH 6.8) to a final volume of 2.5 ml.

Setting [4] is: 5% sucrose + 5% test sample, Example 3 / Test Example 2.

Entries after “also recorded” stand apart in the source; their conditions may differ.

Sequence of (Homo sapiens, UniProt P14410) (P14410 whole entry): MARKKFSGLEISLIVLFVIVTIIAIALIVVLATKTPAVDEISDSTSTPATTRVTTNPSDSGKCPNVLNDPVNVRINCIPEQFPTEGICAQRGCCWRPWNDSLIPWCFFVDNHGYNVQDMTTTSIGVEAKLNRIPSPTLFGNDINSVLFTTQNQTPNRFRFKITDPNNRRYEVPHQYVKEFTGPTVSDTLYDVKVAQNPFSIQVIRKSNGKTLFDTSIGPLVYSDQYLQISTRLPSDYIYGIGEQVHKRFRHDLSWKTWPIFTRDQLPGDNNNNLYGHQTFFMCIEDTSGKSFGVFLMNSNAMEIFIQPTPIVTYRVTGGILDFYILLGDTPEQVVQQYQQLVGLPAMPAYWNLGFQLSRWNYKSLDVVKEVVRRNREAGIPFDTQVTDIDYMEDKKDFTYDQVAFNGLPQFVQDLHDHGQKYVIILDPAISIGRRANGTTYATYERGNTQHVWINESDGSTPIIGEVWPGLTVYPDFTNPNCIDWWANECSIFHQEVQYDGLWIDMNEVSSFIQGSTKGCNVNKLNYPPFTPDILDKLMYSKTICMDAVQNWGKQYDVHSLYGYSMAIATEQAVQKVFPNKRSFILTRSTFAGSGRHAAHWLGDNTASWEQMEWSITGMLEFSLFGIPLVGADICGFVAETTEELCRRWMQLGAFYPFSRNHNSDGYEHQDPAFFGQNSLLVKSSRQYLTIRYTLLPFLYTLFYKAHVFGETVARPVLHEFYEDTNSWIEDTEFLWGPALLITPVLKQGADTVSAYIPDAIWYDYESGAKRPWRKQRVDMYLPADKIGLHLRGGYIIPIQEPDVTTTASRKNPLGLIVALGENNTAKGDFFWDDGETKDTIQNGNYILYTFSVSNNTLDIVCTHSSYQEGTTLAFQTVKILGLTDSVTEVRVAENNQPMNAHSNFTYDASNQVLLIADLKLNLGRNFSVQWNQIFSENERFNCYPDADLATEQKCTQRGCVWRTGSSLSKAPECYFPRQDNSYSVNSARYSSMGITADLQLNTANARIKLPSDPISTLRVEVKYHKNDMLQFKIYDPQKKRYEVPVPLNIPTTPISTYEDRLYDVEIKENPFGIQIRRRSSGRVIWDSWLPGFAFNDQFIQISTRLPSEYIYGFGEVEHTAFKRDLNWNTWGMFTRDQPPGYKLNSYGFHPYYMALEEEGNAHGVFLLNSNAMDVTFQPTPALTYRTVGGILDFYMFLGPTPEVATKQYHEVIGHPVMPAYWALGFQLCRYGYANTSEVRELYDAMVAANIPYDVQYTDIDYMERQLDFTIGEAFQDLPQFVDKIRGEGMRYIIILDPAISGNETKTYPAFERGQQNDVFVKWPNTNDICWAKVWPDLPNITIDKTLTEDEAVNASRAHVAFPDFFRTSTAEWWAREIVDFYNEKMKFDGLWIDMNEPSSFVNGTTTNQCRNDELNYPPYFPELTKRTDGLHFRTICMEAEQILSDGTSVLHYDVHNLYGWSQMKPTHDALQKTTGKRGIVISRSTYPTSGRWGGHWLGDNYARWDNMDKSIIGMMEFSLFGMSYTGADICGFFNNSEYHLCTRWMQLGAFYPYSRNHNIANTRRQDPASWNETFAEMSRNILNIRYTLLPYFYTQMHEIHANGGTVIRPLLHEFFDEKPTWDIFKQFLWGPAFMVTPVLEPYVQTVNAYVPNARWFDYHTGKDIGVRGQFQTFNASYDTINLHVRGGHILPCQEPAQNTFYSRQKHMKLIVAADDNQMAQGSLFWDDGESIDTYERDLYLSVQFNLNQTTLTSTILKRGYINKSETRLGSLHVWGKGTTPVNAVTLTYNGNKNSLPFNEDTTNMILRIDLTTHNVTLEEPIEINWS

As for `OC[C@H]1O[C@H](OC[C@H]2OC(O)(CO)[C@@H](O)[C@@H]2O)[C@H](O)[C@@H](O)[C@@H]1O` (stereo partly shown) [palatinose, isomaltulose], the “Maltase activity inhibitory effect (reported)” value in the assay on maltase is “have a maltase activity inhibitory effect”. In addition, the “Inhibitory effect on the sucrase activity (reported)” value in assay [1] is listed as “no inhibitory effect”. Further, at sucrase [2] (5% sucrose + 0.5%, 1.0%, 3.0% or 5.0% palatinose), the “Intensity of the sucrase activity inhibition, dependence on concentration (FIG. 1)” value was “inhibits sucrose activity depending upon its concentration”. Also, the “Sucrase activity inhibitory effect (in words)” value at sucrase [2] (5% sucrose + 5% test sample) is “a sucrose activity inhibitory effect; also recorded: have a sucrose inhibitory effect”. On sucrase [2] (5% sucrose + 5% test sample, 37° C., 60 min, Example 1 / Test Example 1), the Liberated glucose concentration amounted to 0.803 ± 0.055 g/L. The “Decomposition inhibition ratio, %, against sucrase” value at sucrase [2] (5% sucrose + 5% test sample, Equation 1, Example 1 / Test Example 1) came to 24%. For the same molecule, at sucrase [2] (setting [4]), the “Decomposition inhibition ratio, %, against sucrase” value is given as 29%; the Liberated fructose concentration was determined as 1.05 g/L; the Liberated glucose concentration turned out to be 0.79 g/L. Moreover, the “Inhibitory effect on the decomposition of sucrose (FIG. 5)” value on sucrase [3] (sucrose concentration 0.5%, palatinose 5, 10, 50% relative to sucrose) is listed as “not clear”. Moreover, the “Ratio of palatinose added relative to the weight of sucrose at which decomposition of sucrose was suppressed (FIG. 4)” value on sucrase [3] (sucrose concentrations 3%, 5%, 10% and 15%) was not below 10%. Besides, the “Ratio of inhibitor added relative to the weight of dextrin at which the inhibitory effect on decomposition of dextrin was seen at all dextrin concentrations” value with glucoamylase (dextrin 0.5%, 2%, 5%, 10%, FIG. 8 (palatinose), FIG. 9 (palatinit)) is “above 10%”. Moreover, the “Inhibitory effect on decomposition of dextrin (FIG. 8)” value with glucoamylase (palatinose 5% relative to the weight of dextrin, dextrin concentration 10%) is “no inhibitory effect on decomposition of dextrin was seen”.

The values above are taken from patent US20080206311A1, “Sucrase Activity Inhibitor, Glucoamylase Activity Inhibitor and Food and Feed Containing the Same” (MITSUI SUGAR CO., LTD., priority 2005, published 2008).
